For data set [1], the system named is drug-sensitive cell lines of Table 4. Kind of data set: Cell line growth retardation assay, average over sensitive cohort. The class given is cell-based, Human. The conditions noted are these: Homo sapiens, 144 h; geometric mean of IC50s over sensitive cohort (Table 4); 6 days growth; read-out: AvgSens IC50. The method, then:
(§1) Cell Line Growth Retardation Assay
(§2) Cells were seeded at densities of 1,000-5,000 cells per well in 48-well tissue culture plates. After a 24 h rest period, cells were treated with compound at 10 μM, 2 μM, 0.4 μM, 0.08 μM, 0.016 μM, and 0.0032 μM. A group of cells were treated with the vehicle in which the compound was prepared and served as a control. The cells were grown in the presence of compounds for 6 days and were counted on day 0 and day 6. All cell counting was performed using a Synentec Cellavista plate imager. […] Growth inhibition was calculated as a ratio of cell population doublings in the presence of compound versus the absence of compound. […] IC50 values for each compound were calculated by fitting curves to data points from each dose-response assay using the Proc NLIN function in SAS for Windows version 9.2 (SAS Institute, Inc.).
(§3) Designation of Sensitivity and Resistant Cohorts and Calculation of Average IC50 Values
(§4) Human cancer cell lines were grouped as “sensitive” or “resistant” to ERK1 inhibition based on whether their growth was retarded by KO-947 (i.e., 1,5,6,8-tetrahydro-6-(phenylmethyl)-3-(4-pyridinyl)-7H-pyrazolo[4,3-g]quinazolin-7-one) and SCH772984 (i.e., (3R)-1-[2-oxo-2-[4-[4-(2-pyrimidinyl)phenyl]-1-piperazinyl]ethyl]-N-[3-(4-pyridinyl)-1H-indazol-5-yl]-3-pyrrolidinecarboxamide) (data not shown; see Table 4). These sensitive and resistant cohorts were interrogated for response to each compound, and IC50s were calculated for each cell line using the same technique described above. Average IC50s for the sensitive and resistant cohorts were calculated as geometric means of the group.

In data set [2] the target is ERK1 (Homo sapiens, UniProt P27361). Kind of data set: ERK1 and 2 Enzymatic Inhibition Assay (ERK1). The class given is biochemical. The conditions noted are these: 10 assay concentrations 2×10^−6 M to 6×10^−11 M, 1% DMSO. The method, then: (§5) ERK1 and 2 Enzymatic Inhibition Assay
(§6) For the Ki determination assay, 200 μM stock solutions of compounds were subjected to a serial, semi-logarithmic dilution using 100% DMSO as a solvent. 10 distinct concentrations were prepared, with a dilution endpoint of 6×10^−9 M in 100% DMSO. 100% DMSO was used as a control. 10 μL from each of the serial dilutions were aliquoted into separate wells of a 96-well plate and 90 μL of water were added to each of those wells. The plate was shaken thoroughly, and 5 μL from each of the plate's wells were transferred into wells of the assay plate. The final volume of wells in the assay plate was 50 μL. All compounds were tested at 10 assay concentrations in the range from 2×10^−6 M to 6×10^−11 M. The final DMSO concentration in the wells of the assay plate was 1% in all cases.

Data set [3] addresses ERK2 (Homo sapiens, UniProt P28482). Put plainly: ERK1 and 2 Enzymatic Inhibition Assay (ERK2). The class given is biochemical. The conditions noted are these: 10 assay concentrations 2×10^−6 M to 6×10^−11 M, 1% DMSO. The method, then: as §5, §6
The nature of data set [4]: Compound metabolic stability in hepatocytes. It counts as in vitro ADME. Particulars: hepatocytes from mice and rats (species not given); class symbols without key. The method, then: The metabolic stability of compounds was determined in hepatocytes from mice and rats. Compounds were diluted to 5 μM in Williams' Medium E from 10 mM stock solutions. 10 μL of each compound was aliquoted into a well of a 96-well plate and reactions were started by aliquoting 40 μL of a 625,000 cells/mL suspension into each well. The plate was incubated at 37° C. with 5% CO2. At each corresponding time point, the reaction was stopped by quenching with ACN containing internal standards (IS) at a 1:3. Plates were shaken at 500 rpm for 10 min, and then centrifuged at 3,220×g for 20 minutes. Supernatants were transferred to another 96-well plate containing a dilution solution. Supernatants were analyzed by LC/MS/MS.
Compound half-life was estimated using the following equation: % Remaining Compound=Peak Area Ratios of Tested Compound vs. Internal Standard at End Point/Peak Area Ratios of Tested Compound vs. Internal Standard at Start Point Mouse Xenograft Studies

Data set [5] deals with drug-resistant cell lines of Table 4. Put plainly: Cell line growth retardation assay, average over resistant cohort. The class given is cell-based, Human. The conditions noted are these: Homo sapiens, 144 h; geometric mean of IC50s over resistant cohort (Table 4); 6 days growth; read-out: AvgRes IC50. As for the experimental part:
as §1, §2, §3, §4

IC50, Kd and half-life data for 17 molecules are collected here from patent publication US12428416B2 (California Institute of Technology, priority 2018, dated 2025).

Where only a bound is given, the exact number is not on record here.

ERK1, sequence (P27361 whole entry): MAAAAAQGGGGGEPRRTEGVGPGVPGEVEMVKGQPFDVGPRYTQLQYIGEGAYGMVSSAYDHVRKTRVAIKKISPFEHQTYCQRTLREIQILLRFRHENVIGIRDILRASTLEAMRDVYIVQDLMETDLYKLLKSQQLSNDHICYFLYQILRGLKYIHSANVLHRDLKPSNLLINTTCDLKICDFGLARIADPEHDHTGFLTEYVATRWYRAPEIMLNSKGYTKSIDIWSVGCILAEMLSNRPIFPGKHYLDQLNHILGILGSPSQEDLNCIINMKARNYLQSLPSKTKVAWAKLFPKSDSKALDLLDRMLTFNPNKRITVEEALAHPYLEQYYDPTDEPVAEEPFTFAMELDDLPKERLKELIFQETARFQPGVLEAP
ERK2, sequence (P28482 whole entry): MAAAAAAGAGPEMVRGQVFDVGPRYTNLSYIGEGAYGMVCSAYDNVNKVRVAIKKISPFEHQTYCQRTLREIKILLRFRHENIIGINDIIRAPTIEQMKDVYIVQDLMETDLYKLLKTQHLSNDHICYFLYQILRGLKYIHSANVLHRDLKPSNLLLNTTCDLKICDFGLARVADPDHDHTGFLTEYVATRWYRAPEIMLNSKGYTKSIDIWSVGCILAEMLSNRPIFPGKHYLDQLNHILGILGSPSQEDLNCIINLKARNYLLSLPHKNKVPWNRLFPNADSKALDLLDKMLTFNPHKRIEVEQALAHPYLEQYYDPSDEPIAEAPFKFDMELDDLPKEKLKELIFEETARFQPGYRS

In general, IC50 refers to the midpoint of a concentration-inhibition curve. As a reminder, the Kd is a measure of binding affinity in units of concentration. A word on the half-life: it is the time needed for the level to fall by half in the phase considered. On to `CC(NC(=O)c1ncc(-c2c[nH]c3ncc(N4CCOCC4)cc23)cn1)c1ccccc1` (stereo in doubt) [Compound 22, (S)-5-(5-morpholino-1H-pyrrolo[2,3-b]pyridin-3-yl)-N-(1-phenylethyl)pyrimidine-2-carboxamide], for which the IC50 in data set [1] and in data set [5] was more than 500 nM throughout. Besides, the Kd in data set [2] and in data set [3] was more than 100 nM in each case. Moreover, in data set [4], the half-life at 1 µM was more than 25 min.

Consider `Cc1cccc(C(C)NC(=O)c2ncc(-c3c[nH]c4ncc(N5CCOCC5)cc34)cn2)c1` (stereo in doubt) [Compound 50, (R)-5-(5-morpholino-1H-pyrrolo[2,3-b]pyridin-3-yl)-N-(1-(m-tolyl)ethyl)pyrimidine-2-carboxamide], for which the IC50 in data set [1] is not above 250 nM; in data set [5], more than 500 nM. The Kd in data set [2] and in data set [3] was not above 10 nM in each case. The molecule further returned a half-life at 1 µM in data set [4] of more than 25 min.

As to `O=C(NCCc1ccccc1)c1ncc(-c2c[nH]c3ncc(N4CCOCC4)cc23)cn1` [Compound 11, 5-(5-morpholino-1H-pyrrolo[2,3-b]pyridin-3-yl)-N-phenethylpyrimidine-2-carboxamide], the IC50 was 251 to 500 nM in data set [1] and more than 500 nM in data set [5]. For the same molecule, the Kd in data set [2] and in data set [3] was not above 10 nM each time. In addition, the half-life at 1 µM in data set [4] is less than 25 min.

For `C[C@@H](NC(=O)c1ncc(-c2c[nH]c3ncc(N4CCOCC4)cc23)cn1)c1cccc(Cl)c1` [Compound 20, (R)—N-(1-(3-chlorophenyl)ethyl)-5-(5-morpholino-1H-pyrrolo[2,3-b]pyridin-3-yl)pyrimidine-2-carboxamide], the figures for the IC50 in data set [1] and in data set [5] were not above 250 nM and more than 500 nM, respectively. Moreover, the Kd in data set [2] and in data set [3] was not above 10 nM throughout. Also, the half-life at 1 µM in data set [4] was more than 25 min.

For `C[C@@H](NC(=O)c1ncc(-c2c[nH]c3ncc(N4CCOCC4)cc23)cn1)c1ccc(Cl)cc1` [Compound 25, (R)—N-(1-(4-chlorophenyl)ethyl)-5-(5-morpholino-1H-pyrrolo[2,3-b]pyridin-3-yl)pyrimidine-2-carboxamide], the half-inhibitory concentration (IC50) in data set [1] and in data set [5] was more than 500 nM throughout. The equilibrium dissociation constant (Kd) in data set [2] and in data set [3] was not above 10 nM each time. In data set [4], this molecule returned a half-life at 1 µM of more than 25 min.

With `O=C(c1ncc(-c2c[nH]c3ncc(N4CCOCC4)cc23)cn1)N1CCCC1c1ccccn1` (stereo not shown) [Compound 26, (5-(5-morpholino-1H-pyrrolo[2,3-b]pyridin-3-yl)pyrimidin-2-yl)(2-(pyridin-2-yl)pyrrolidin-1-yl)methanone], the IC50 in data set [1] and in data set [5] was more than 500 nM in each case. Further, the Kd in data set [2] was 11 to 100 nM; in data set [3], more than 100 nM. The molecule also gave a half-life at 1 µM in data set [4] of less than 25 min.

For the molecule `c1ccc([C@H]2COC(c3ncc(-c4c[nH]c5ncc(N6CCOCC6)cc45)cn3)=N2)cc1` [Compound 27, (S)-4-(3-(2-(4-phenyl-4,5-dihydrooxazol-2-yl)pyrimidin-5-yl)-1H-pyrrolo[2,3-b]pyridin-5-yl)morpholine], the IC50 in data set [1] and in data set [5] was more than 500 nM each time. The Kd in data set [2] and in data set [3] was not above 10 nM in each case. In addition, the half-life at 1 µM in data set [4] was more than 25 min.

As to `c1ccc([C@@H]2COC(c3ncc(-c4c[nH]c5ncc(N6CCOCC6)cc45)cn3)=N2)cc1` [Compound 28, (R)-4-(3-(2-(4-phenyl-4,5-dihydrooxazol-2-yl)pyrimidin-5-yl)-1H-pyrrolo[2,3-b]pyridin-5-yl)morpholine], the half-inhibitory concentration (IC50) in data set [1] and in data set [5] was more than 500 nM in each case. The Kd in data set [2] and in data set [3] was more than 100 nM each time. The molecule also gave a half-life at 1 µM in data set [4] of more than 25 min.

Consider `O=C(NC(c1ccccc1)C1CC1)c1ncc(-c2c[nH]c3ncc(N4CCOCC4)cc23)cn1` (stereo not shown) [Compound 49, N-(cyclopropyl(phenyl)methyl)-5-(5-morpholino-1H-pyrrolo[2,3-b]pyridin-3-yl)pyrimidine-2-carboxamide], for which the half-inhibitory concentration (IC50) is 251 to 500 nM in data set [1] and more than 500 nM in data set [5]. Moreover, the Kd in data set [2] and in data set [3] was not above 10 nM throughout.

On to `CCN1C[C@H](c2ccccc2)N=C1c1ncc(-c2c[nH]c3ncc(N4CCOCC4)cc23)cn1` [Compound 51, (S)-4-(3-(2-(1-ethyl-4-phenyl-4,5-dihydro-1H-imidazol-2-yl)pyrimidin-5-yl)-1H-pyrrolo[2,3-b]pyridin-5-yl)morpholine], for which the IC50 in data set [1] is 251 to 500 nM; in data set [5], more than 500 nM. The Kd in data set [2] and in data set [3] was 11 to 100 nM throughout.

With `c1ccc([C@H]2CN=C(c3ncc(-c4c[nH]c5ncc(N6CCOCC6)cc45)cn3)O2)cc1` [Compound 55, (S)-4-(3-(2-(5-phenyl-4,5-dihydrooxazol-2-yl)pyrimidin-5-yl)-1H-pyrrolo[2,3-b]pyridin-5-yl)morpholine], the IC50 in data set [1] and in data set [5] was more than 500 nM in each case. The dissociation constant (Kd) in data set [2] and in data set [3] was 11 to 100 nM each time.

Take `C[C@H]1N=C(c2ncc(-c3c[nH]c4ncc(N5CCOCC5)cc34)cn2)O[C@H]1c1ccccc1` [Compound 56, 4-(3-(2-((4R,5S)-4-methyl-5-phenyl-4,5-dihydrooxazol-2-yl)pyrimidin-5-yl)-1H-pyrrolo[2,3-b]pyridin-5-yl)morpholine]: the half-maximal inhibitory concentration (IC50) in data set [1] and in data set [5] was more than 500 nM each time. Further, the Kd in data set [2] and in data set [3] was 11 to 100 nM throughout.

Regarding `O=C(NCCc1ccccn1)c1ncc(-c2c[nH]c3ncc(N4CCOCC4)cc23)cn1` [Compound 60, 5-(5-morpholino-1H-pyrrolo[2,3-b]pyridin-3-yl)-N-(2-(pyridin-2-yl)ethyl)pyrimidine-2-carboxamide], the 50% inhibitory concentration (IC50) in data set [1] and in data set [5] was more than 500 nM throughout. Moreover, the Kd in data set [2] and in data set [3] was 11 to 100 nM throughout.

For `O=C(NCCc1ccccc1Cl)c1ncc(-c2c[nH]c3ncc(N4CCOCC4)cc23)cn1` [Compound 61, N-(2-chlorophenethyl)-5-(5-morpholino-1H-pyrrolo[2,3-b]pyridin-3-yl)pyrimidine-2-carboxamide], the IC50 in data set [1] was 251 to 500 nM; in data set [5], more than 500 nM. Moreover, the Kd in data set [2] and in data set [3] was not above 10 nM each time.

For the molecule `O=C(NCCc1ccc(F)cc1)c1ncc(-c2c[nH]c3ncc(N4CCOCC4)cc23)cn1` [Compound 62, N-(4-fluorophenethyl)-5-(5-morpholino-1H-pyrrolo[2,3-b]pyridin-3-yl)pyrimidine-2-carboxamide], the IC50 in data set [1] and in data set [5] was more than 500 nM in each case. In addition, the Kd is not above 10 nM in data set [2] and 11 to 100 nM in data set [3].

Regarding `Cc1ccccc1CCNC(=O)c1ncc(-c2c[nH]c3ncc(N4CCOCC4)cc23)cn1` [Compound 65, N-(2-methylphenethyl)-5-(5-morpholino-1H-pyrrolo[2,3-b]pyridin-3-yl)pyrimidine-2-carboxamide], the figures for the IC50 in data set [1] and in data set [5] were not above 250 nM and more than 500 nM, respectively. Moreover, the Kd in data set [2] and in data set [3] was not above 10 nM in each case.

On to `N#Cc1ccccc1CCNC(=O)c1ncc(-c2c[nH]c3ncc(N4CCOCC4)cc23)cn1` [Compound 66, N-(2-cyanophenethyl)-5-(5-morpholino-1H-pyrrolo[2,3-b]pyridin-3-yl)pyrimidine-2-carboxamide], for which the IC50 in data set [1] and in data set [5] was more than 500 nM each time. Further, the Kd in data set [2] and in data set [3] was not above 10 nM each time.
